Measurements reported in patent US11479556B1, “Bifunctional compounds for degrading BTK via ubiquitin proteosome pathway” (NURIX THERAPEUTICS, INC., priority 2018, dated 2022).

Molecular target: T1, BTK (Homo sapiens, UniProt Q06187)
T1 construct: endogenous in cells; host or cells: TMD8 cells
Test: Cellular BTK HTRF assay (BTK degradation) in TMD8 cells
Format: cell-based
Conditions: four hours incubation, Total-BTK HTRF relative to DMSO-treated cells
Description: Example 66: BTK Degradation Assay
TMD8 cells were obtained from Tokyo Medical and Dental University and were grown in alpha-MEM (Fisher 12571063) supplemented with 10% heat-inactivated FBS (Corning Premium Fetal Bovine Serum from Fisher, MT35015CV).
Compounds of the present invention were added to 50,000 TMD8 cells in round-bottom 96 well plates with a final DMSO concentration of […] and were incubated at 37° C. 5% CO2 for four hours. BTK levels were determined using Cisbio Total-BTK HTRF ([…] Time-Resolved Fluorescence) kit (63ADK064PEG) according to manufacturer's protocol. Briefly, cells were incubated in 1× supplied lysis buffer for 30 minutes. In an opaque white low volume 96 well plate (Cisbio, 66PL96005), cell lysate was combined with two different specific BTK antibodies, one conjugated with Eu^3+-Cryptate FRET donor and one conjugated with d2 FRET acceptor. Assay controls include wells containing cell lysate with only the Eu^3+-Cryptate FRET donor antibody and wells containing both HTRF antibodies and lysis buffer without cells or control lysate provided by Cisbio. HTRF ratio was calculated as (acceptor signal at 665 nm/donor signal at 620 nm)×10^4. Background HTRF levels were determined from the control well containing the donor, but no acceptor, antibody. Background HTRF levels were subtracted from all samples. Readouts were reported as HTRF levels relative to HTRF levels of DMSO-treated cells. Four-parameter non-linear regressions were performed in GraphPad Prism 7.02 to obtain DC50 values. DC50 values are provided in Table 3, wherein A<5.0 nM, 5.0 nM≤B≤15 nM, and 15 nM<C.

T1 sequence (Q06187 whole entry): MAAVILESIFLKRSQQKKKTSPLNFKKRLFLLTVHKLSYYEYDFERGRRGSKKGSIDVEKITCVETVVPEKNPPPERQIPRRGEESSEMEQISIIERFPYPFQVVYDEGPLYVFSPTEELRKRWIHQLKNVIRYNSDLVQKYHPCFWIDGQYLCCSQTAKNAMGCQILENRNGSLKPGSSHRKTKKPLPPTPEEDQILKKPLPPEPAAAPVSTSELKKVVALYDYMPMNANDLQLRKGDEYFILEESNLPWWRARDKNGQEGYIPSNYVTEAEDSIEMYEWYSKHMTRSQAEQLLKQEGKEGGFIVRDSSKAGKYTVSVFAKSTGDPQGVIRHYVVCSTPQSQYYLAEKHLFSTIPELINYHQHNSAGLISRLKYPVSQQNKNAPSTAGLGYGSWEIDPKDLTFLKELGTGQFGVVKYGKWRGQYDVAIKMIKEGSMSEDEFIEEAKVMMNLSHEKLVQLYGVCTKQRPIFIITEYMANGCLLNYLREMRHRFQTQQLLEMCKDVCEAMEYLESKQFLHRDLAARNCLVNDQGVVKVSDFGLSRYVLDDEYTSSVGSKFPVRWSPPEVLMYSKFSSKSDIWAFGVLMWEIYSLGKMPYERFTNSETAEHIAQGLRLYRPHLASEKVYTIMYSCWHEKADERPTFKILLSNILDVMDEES

DC50	Compound
< 5 nM	CN1CCN([C@H]2CCCN(c3cnc(C(N)=O)c(Nc4ccc(C5(C)CCN([C@H]6C[C@@H](Nc7cccc8c7C(=O)N(C7CCC(=O)NC7=O)C8=O)C6)CC5)cc4)n3)C2)C1=O (stereo partly shown) [Compound 102]
< 5 nM	CN1CCN([C@H]2CCCN(c3cnc(C(N)=O)c(Nc4ccc(C5(C)CCN([C@H]6C[C@H](Nc7cccc8c7C(=O)N(C7CCC(=O)NC7=O)C8=O)C6)CC5)cc4)n3)C2)C1=O (stereo partly shown) [Compound 103]
5 to 15 nM	CN1CCN([C@@H]2CCCN(c3cnc(C(N)=O)c(Nc4ccc(N5CCC6CCN(Cc7ccc8c(c7)C(=O)N(N7CCC(=O)NC7=O)C8=O)CC6C5)cc4)n3)C2)C1=O (stereo partly shown) [Compound 104]
> 15 nM	CN1CCN([C@@H]2CCCN(c3cnc(C(N)=O)c(Nc4ccc(N5CCC6CCN(c7cccc8c7C(=O)N(N7CCC(=O)NC7=O)C8=O)CC6C5)cc4)n3)C2)C1=O (stereo partly shown) [Compound 105]
5 to 15 nM	CN1CCN([C@H]2CCCN(c3cnc(C(N)=O)c(Nc4ccc(N5CC[C@H]6CCN(c7ccc8c(c7)C(=O)N(N7CCC(=O)NC7=O)C8=O)C[C@H]6C5)cc4)n3)C2)C1=O [Compound 106]
> 15 nM	CN1CCN([C@H]2CCCN(c3cnc(C(N)=O)c(Nc4ccc(N5CC[C@@H]6CCN(c7ccc8c(c7)C(=O)N(N7CCC(=O)NC7=O)C8=O)C[C@H]6C5)cc4)n3)C2)C1=O [Compound 107]
5 to 15 nM	CN1CCN([C@H]2CCCN(c3cnc(C(N)=O)c(Nc4ccc(N5CCC6(CCCN(Cc7ccc8c(c7)C(=O)N(N7CCC(=O)NC7=O)C8=O)C6)CC5)cc4)n3)C2)C1=O [Compound 108]
< 5 nM	CN1CCN([C@H]2CCCN(c3cnc(C(N)=O)c(Nc4ccc(N5CCC6(CC5)CCN(c5ccc7c(c5)C(=O)N(C5CCC(=O)NC5=O)C7=O)C6)cc4)n3)C2)C1=O (stereo partly shown) [Compound 109]
< 5 nM	CN1CCN([C@H]2CCCN(c3cnc(C(N)=O)c(Nc4ccc(N5CCN(CCCCc6cccc7c6CN(C6CCC(=O)NC6=O)C7=O)CC5)nc4)n3)C2)C1=O (stereo partly shown) [Compound 110]
5 to 15 nM	CN1CCN([C@H]2CCCN(c3cnc(C(N)=O)c(Nc4ccc(N5CCCC6(C5)CN(c5ccc7c(c5)C(=O)N(C5CCC(=O)NC5=O)C7=O)C6)cc4)n3)C2)C1=O (stereo partly shown) [Compound 111]
< 5 nM	CN1CCN([C@H]2CCCN(c3cnc(C(N)=O)c(Nc4ccc(N5CCC6(CC5)CN(c5ccc7c(c5)C(=O)N(N5CCC(=O)NC5=O)C7=O)C6)cc4)n3)C2)C1=O [Compound 112]
< 5 nM	CN1CCN([C@@H]2CCCN(c3cnc(C(N)=O)c(Nc4ccc(N5CCN(C[C@H]6CCN(c7ccc8c(c7)C(=O)N(C7CCC(=O)NC7=O)C8=O)C6)CC5)nc4)n3)C2)C1=O (stereo partly shown) [Compound 113]
< 5 nM	CN1CCN([C@@H]2CCCN(c3cnc(C(N)=O)c(Nc4ccc(N5CC6CN(CC7CCN(c8ccc9c(c8)C(=O)N(N8CCC(=O)NC8=O)C9=O)CC7)CC6C5)cc4)n3)C2)C1=O (stereo partly shown) [Compound 114]
< 5 nM	CN1CCN([C@@H]2CCCN(c3cnc(C(N)=O)c(Nc4ccc(C5CCN(C[C@H]6CCN(c7ccc8c(=O)n(C9CCC(=O)NC9=O)ccc8c7)C6)CC5)cc4)n3)C2)C1=O (stereo partly shown) [Compound 115]
< 5 nM	CN1CCN([C@@H]2CCCN(c3cnc(C(N)=O)c(Nc4ccc(C5CCN(CC6CN(c7ccc8c(=O)n(C9CCC(=O)NC9=O)ccc8c7)C6)CC5)cc4)n3)C2)C1=O (stereo partly shown) [Compound 116]
< 5 nM	CN1CCN([C@@H]2CCCN(c3cnc(C(N)=O)c(Nc4ccc(C5CCN(C[C@H]6CCN(c7ccc8c(c7)CN(C7CCC(=O)NC7=O)C8=O)C6)CC5)cc4)n3)C2)C1=O (stereo partly shown) [Compound 117]

Further lines, the compound ahead of its results:

Compound	DC50
CN1CCN([C@@H]2CCCN(c3cnc(C(N)=O)c(Nc4ccc(N5CCN(CC6CN(c7ccc8c(c7)C(=O)N(C7CCC(=O)NC7=O)C8=O)C6)CC5)cc4)n3)C2)C1=O (stereo partly shown) [Compound 82]	< 5 nM
CN1CCN([C@H]2CCCN(c3cnc(C(N)=O)c(Nc4cnn(C5CCN(CC6CCN(c7ccc8c(c7)C(=O)N(C7CCC(=O)NC7=O)C8=O)CC6)CC5)c4)n3)C2)C1=O (stereo partly shown) [Compound 83]	< 5 nM
CN1CCN([C@H]2CCCN(c3cnc(C(N)=O)c(Nc4cnn(C5CCN(CCCc6cccc7c6CN(C6CCC(=O)NC6=O)C7=O)CC5)c4)n3)C2)C1=O (stereo partly shown) [Compound 84]	> 15 nM
CN1CCN([C@@H]2CCCN(c3cnc(C(N)=O)c(Nc4ccc(C5CN(CC6CN(c7ccc8c(c7)C(=O)N(C7CCC(=O)NC7=O)C8=O)C6)C5)cc4)n3)C2)C1=O (stereo partly shown) [Compound 85]	< 5 nM
CN1CCN([C@@H]2CCCN(c3cnc(C(N)=O)c(Nc4ccc(C5CCN(C6CN(Cc7ccc8c(c7)CN(C7CCC(=O)NC7=O)C8=O)C6)CC5)cc4)n3)C2)C1=O (stereo partly shown) [Compound 86]	< 5 nM
CN1CCN([C@H]2CCCN(c3cnc(C(N)=O)c(Nc4ccc(C5CCN(C[C@H]6CCCN6c6ccc7c(c6)C(=O)N(C6CCC(=O)NC6=O)C7=O)CC5)cc4)n3)C2)C1=O (stereo partly shown) [Compound 87]	< 5 nM
CN1CCN([C@H]2CCCN(c3cnc(C(N)=O)c(Nc4ccc(N5CCN(CCCCc6cccc7c6CN(C6CCC(=O)NC6=O)C7=O)CC5)cn4)n3)C2)C1=O (stereo partly shown) [Compound 88]	> 15 nM
CN1CCN([C@@H]2CCCN(c3cnc(C(N)=O)c(Nc4ccc(N5CCN(C[C@H]6CCN(c7ccc8c(c7)C(=O)N(C7CCC(=O)NC7=O)C8=O)C6)CC5)cn4)n3)C2)C1=O (stereo partly shown) [Compound 89]	5 to 15 nM
CN1CCN([C@H]2CCCN(c3cnc(C(N)=O)c(Nc4ccc(C(=O)N5CCN(Cc6ccc7c(c6)C(=O)N(C6CCC(=O)NC6=O)C7=O)CC5)cc4)n3)C2)C1=O (stereo partly shown) [Compound 90]	5 to 15 nM
CN1CCN([C@@H]2CCCN(c3cnc(C(N)=O)c(Nc4ccc(N5CC6CN(CC7CN(c8ccc9c(c8)C(=O)N(C8CCC(=O)NC8=O)C9=O)C7)CC6C5)cc4)n3)C2)C1=O (stereo partly shown) [Compound 91]	< 5 nM
CN1CCN([C@@H]2CCCN(c3cnc(C(N)=O)c(Nc4ccc(N5CCC6(CC5)CN(Cc5ccc7c(c5)C(=O)N(C5CCC(=O)NC5=O)C7=O)C6)cc4)n3)C2)C1=O (stereo partly shown) [Compound 93]	< 5 nM
CN1CCN([C@H]2CCCN(c3cnc(C(N)=O)c(Nc4ccc(N5CCCC6(CN(Cc7ccc8c(c7)C(=O)N(C7CCC(=O)NC7=O)C8=O)C6)C5)cc4)n3)C2)C1=O (stereo partly shown) [Compound 94]	< 5 nM
CN1CCN([C@@H]2CCCN(c3cnc(C(N)=O)c(Nc4ccc(N5CC[C@@H]6CCN(Cc7ccc8c(c7)C(=O)N(N7CCC(=O)NC7=O)C8=O)C[C@@H]6C5)cc4)n3)C2)C1=O [Compound 95]	5 to 15 nM
CN1CCN([C@@H]2CCCN(c3cnc(C(N)=O)c(Nc4ccc(N5CCCC6(C5)CN(c5cccc7c5C(=O)N(C5CCC(=O)NC5=O)C7=O)C6)cc4)n3)C2)C1=O (stereo partly shown) [Compound 96]	> 15 nM
CN1CCN([C@H]2CCCN(c3cnc(C(N)=O)c(Nc4ccc(N5CCC6(CC5)CN(c5cccc7c5C(=O)N(C5CCC(=O)NC5=O)C7=O)C6)cc4)n3)C2)C1=O (stereo partly shown) [Compound 97]	> 15 nM
CN1CCN([C@H]2CCCN(c3cnc(C(N)=O)c(Nc4ccc(N5CCN(CC#Cc6ccc7c(c6)C(=O)N(C6CCC(=O)NC6=O)C7)CC5)cc4)n3)C2)C1=O (stereo partly shown) [Compound 98]	< 5 nM
CN1CCN([C@@H]2CCCN(c3cnc(C(N)=O)c(Nc4ccc(N5CCN(Cc6ccc7c(c6)C(=O)N(C6CCC(=O)NC6=O)C7=O)CC5)cc4)n3)C2)C1=O (stereo partly shown) [Compound 100]	> 15 nM
CN1CCN([C@@H]2CCCN(c3cnc(C(N)=O)c(Nc4ccc(N5CCN(C6CN(Cc7ccc8c(c7)C(=O)N(C7CCC(=O)NC7=O)C8=O)C6)CC5)cc4)n3)C2)C1=O (stereo partly shown) [Compound 101]	< 5 nM
